Converted amounts (≈) assume the structure as drawn.
Experiments:
[1] = Approximate solubility in solvents at room temperature; type: physicochemical; details: 25 °C, thermodynamic from solid
Procedure: Approximate solubility of SCY-078 salts—The term “approximate solubility” with respect to SCY-078 salts means the procedure described in this paragraph. To conduct each experiment, a sample of a SCY-078 salt (˜2 mg) was added into a 3-mL glass vial. Then a solvent was added step-wise (100 μL per step) into the vials until the solids were dissolved or a total volume of 2 mL was reached.
First, MeOH desolvate (˜2 mg) was added to a 3-mL glass vial. Then the corresponding solvent was added step wise (100 μL) until the solution was visually clear or a total volume of 2 mL was reached.

[2] = Dynamic Vapor Sorption (DVS) water uptake; type: physicochemical; details: for solid form by XRPD after DVS: after DVS experiment
Procedure: Dynamic Vapor Sorption (DVS)—The term “DVS” means the procedure described in below. The relative humidity at 25° C. was calibrated against deliquescence point of LiCl, Mg(NO3)2 and KCl.
The DVS of SCY-078 salts were tested according to the above method, using a 10-20 mg sample size. The DVS was measured using a Surface Measurement Systems (SMS) DVS Intrinsic.

[3] = Kinetic solubility of trifluoroacetate Types A and B and HCl Type I (alternative procedure: SGF, FaSSIF and FeSSIF alternative media, acetate pH 5.5, phosphate pH 6.0 alternative media)
Procedure: An alternative media (“FaSSIF alternative media”) was used to study the trifluoroacetate salts (Type A and B) and the HCl Type I salt. More specifically, the media was prepared by weighing 0.17 g of sodium phosphate monobasic (NaH2PO4, anhydrous), 0.021 g of sodium hydroxide, and 0.31 g of sodium chloride into a 50-mL volumetric flask and was dissolve with approximately 48 mL of purified water. The pH was adjusted to exactly 6.5 using 1 M HCl or 1 M NaOH and diluted to volume with purified water. 0.11 g of SIF powder was then added, stirred and sonicated until all the powder was completely dissolved. The solution was equilibrated for 2 hours at RT before use. The solution can be stored at RT for 48 hours or 4° C. for 7 days and should be equilibrated to RT before use
An alternative media (“FeSSIF alternative media”) was used to study the trifluoroacetate salts (Type A and B) and the HCl Type I salt. More specifically, the media was prepared by transferring 0.41 mL of glacial acid and weighing 0.20 g of sodium hydroxide, 0.59 g of sodium chloride into a 50-mL volumetric flask. This was dissolved with approximately 48 mL of purified water. The pH was adjusted to exactly 5.0 using 1 M HCl or 1 M NaOH and diluted to volume with purified water. 0.56 g of SIF powder was added, stirred and sonicated until all the powder is completely dissolved. The solution can be stored at RT for 48 hours or 4° C. for 7 days and should be equilibrated to RT before use.
Acetate Buffer (pH 5.5) Preparation—The acetate buffer (pH 5.5) used for the trifluoroacetate salts (Type A and B) and the HCl Type I salt was prepared by placing 0.60 g sodium acetate (NaC2H3O2.3H2O) in a 100-mL volumetric flask, adding 3 mL of 2 M acetic acid solution, and then adding purified water to volume.
An alternative media (“phosphate (pH 6.0) alternative media”) was used to study the trifluoroacetate salts (Type A and B) and the HCl Type I salt. More specifically, the media was prepared by dissolving 2.72 g of 0.2 M monobasic potassium phosphate (KH2PO4) in purified water, and diluting with purified water t 100 mL. 0.8 g of 0.2 M sodium hydroxide in purified water was diluted with purified water to 100 mL. Then 50 mL of the 0.2 M monobasic potassium phosphate solution was placed in a 200-mL volumetric flask, 5.6 mL of 0.2 M sodium hydroxide solution was added, and then purified water was added to volume.
The trifluoroacetate salts (Type A and B) and the HCl Type I salt were tested using the following alternative procedure. First, 15 mg, 36 mg or 90 mg solid was weighted into a 4-mL plastic tube, and 3 mL of relevant media was added before leaving the suspension on a rolling incubator (25 r/min). For SCF, 90 mg of solid was used. For FaSSIF, acetate buffer (pH 5.5), and phosphate buffer (pH 6.0), 15 mg solid was used. For FeSSIF, 36 mg of solid was used. 1.0 mL aliquot of the suspension was sampled for centrifugation with the supernatant submitted for HPLC and pH measurement and solid for XRPD characterization at 1 hr, 4 hr and/or 24 hrs.
The solubility of trifluoroacetate Type A, Type B and HCl Type I was measured in SGF at ambient temperature. Approximately 90 mg of solid sample was weighted into a 4-mL centrifuge tube, and 3 mL of SGF buffer was added before leaving the suspension on a rolling incubator (25 r/min). 1.0 mL aliquot of the suspension was sampled for centrifugation (10000 rpm, 3 mins) the supernatant was analyzed by HPLC and pH measurement and solid by XRPD characterization at 1 hr, 4 hr and 24 hrs, respectively.
The solubility of trifluoroacetate Type A, Type B and hydrochloride Type I was measured in the FaSSIF alternative media at ambient temperature. Approximately 15 mg of solid sample was weighted into a 4-mL plastic tube, and 3 mL of the media was added before leaving the suspension on a rolling incubator (25 r/min).

[4] = Physical and chemical stability of trifluoroacetate Types A and B and HCl Type I for 1, 2, 4 and 8 weeks; type: physicochemical; details: 25° C./60% RH, 40° C./75% RH and 60° C.; 8 weeks; listed as Trifluoroacetate Type B
Procedure: High Power Liquid Chromatography (HPLC) Method—An Agilent 1260 HPLC with DAD detector was utilized to test solubility or to test purity and stability. […] System suitability was tested by injecting standard solutions five times in each sample sequence, and the relative standard deviation of the peak areas was less than 2%.
Physical and chemical stability evaluation of trifluoroacetate Type A, trifluoroacetate Type B, and HCl Type I was performed at 25° C./60% RH, 40° C./75% RH and 60° C. for 1, 2, 4 and 8 weeks. In the experiments, approximately 20 mg of solid was placed into a 1.5-mL glass vial. The vials were stored under 25° C./60% RH (uncapped), 40° C./75% RH (uncapped) and 60° C. (capped) conditions for 8 weeks. XRPD analysis was then employed to check the crystalline form of the solid, and HPLC was utilized to determine the purity profile at 1, 2, 4 and 8 weeks. […] The solid form change of trifluoroacetate Type A at 2 and 4 weeks was postulated to the air-exposure when the sample was taken out for XRPD characterization.

CC(C)[C@@H](C)[C@@]1(C)CC[C@]2(C)[C@H]3CC[C@@H]4[C@@]5(COC[C@]4(C)[C@@H](OC[C@](C)(N)C(C)(C)C)[C@H](n4ncnc4-c4ccncc4)C5)C3=CC[C@@]2(C)[C@@H]1C(=O)O [SCY-078, (1S,4aR,6aS,7R,8R,10aR,10bR,12aR,14R,15R)-15-[[(2R)-2-amino-2,3,3-trimethylbutyl]oxy]-8-[(1R)-1,2-dimethylpropyl]-14-[5-(4-pyridinyl)-1H-1,2,4-triazol-1-yl]-1,6,6a,7,8,9,10,10a,10b,11,12,12a-dodecahydro-1,6a,8,10a-tetramethyl-4H-4a-propano-2H -phenanthro[1,2-c]pyran-7-carboxylic acid]
solubility ([1]; organic solvent or mixture, 1,4-Dioxane, RT): > 37 mg/mL
solubility ([1]; organic solvent or mixture, 2-MeTHF, RT): > 25 mg/mL
solubility ([1]; organic solvent or mixture, Acetic Acid, RT): > 25 mg/mL
solubility ([1]; organic solvent or mixture, Acetone, RT): 8.3 to 12.5 mg/mL (≈ 11.4 to 17.1 mM)
solubility ([1]; organic solvent or mixture, CHCl3, RT): > 33 mg/mL
solubility ([1]; organic solvent or mixture, DMA, RT): > 40 mg/mL
solubility ([1]; organic solvent or mixture, DMSO, RT): > 32 mg/mL
solubility ([1]; organic solvent or mixture, EtOAc, RT): > 23 mg/mL
solubility ([1]; organic solvent or mixture, EtOH, RT): 2.6 to 3 mg/mL (≈ 3.56 to 4.11 mM)
solubility ([1]; organic solvent or mixture, Heptane, RT): < 2.2 mg/mL
solubility ([1]; organic solvent or mixture, IPA, RT): 7 to 11 mg/mL (≈ 9.59 to 15.1 mM)
solubility ([1]; organic solvent or mixture, MIBK, RT): > 29 mg/mL
solubility ([1]; organic solvent or mixture, MTBE, RT): > 23 mg/mL
solubility ([1]; organic solvent or mixture, MeOH, RT): 5.4 to 6.3 mg/mL (≈ 7.4 to 8.63 mM)
solubility ([1]; organic solvent or mixture, NMP, RT): > 45 mg/mL
solubility ([1]; organic solvent or mixture, THF, RT): > 23 mg/mL
solubility ([1]; organic solvent or mixture, Toluene, RT): 6.8 to 8.5 mg/mL (≈ 9.31 to 11.6 mM)
solubility ([1]; organic solvent or mixture, iPrOAc, RT): 10.5 to 21 mg/mL (≈ 14.4 to 28.8 mM)
solubility ([1]; acetonitrile (ACN), organic solvent or mixture, ACN, RT): 2.6 to 2.9 mg/mL (≈ 3.56 to 3.97 mM)
solubility ([1]; water (H2O), water, H2O, RT): < 1.9 mg/mL

CC(C)[C@@H](C)[C@@]1(C)CC[C@]2(C)[C@H]3CC[C@@H]4[C@@]5(COC[C@]4(C)[C@@H](OC[C@](C)(N)C(C)(C)C)[C@H](n4ncnc4-c4ccncc4)C5)C3=CC[C@@]2(C)[C@@H]1C(=O)O.O=C(O)C(F)(F)F [SCY-078 Trifluoroacetate Type B]
water uptake (DVS) ([2]; 25° C./80% RH): 3.4 wt %
solid form by XRPD after DVS [2]: converted to Type A
form change of residual solid in FaSSIF alternative media ([3]; FaSSIF alternative media, ambient temperature, listed as Trifluoroacetate Type B): converted to Type A
form change of residual solid in FeSSIF alternative media ([3]; FeSSIF alternative media, ambient temperature, listed as trifluoroacetate Type B): no form change was observed
form change of residual solid in SGF ([3]; SGF, ambient temperature, listed as Trifluoroacetate Type B): converted to Type A
form change of residual solid in acetate buffer ([3]; acetate buffer pH 5.5, ambient temperature, listed as trifluoroacetate Type B): converted to Type A
form change of residual solid in phosphate (pH 6.0) alternative media ([3]; phosphate (pH 6.0) alternative media, ambient temperature, listed as trifluoroacetate Type B): converted to Type A at 24 hrs
physical and chemical stability [4]: chemically stable, however, physically unstable

CC(C)[C@@H](C)[C@@]1(C)CC[C@]2(C)[C@H]3CC[C@@H]4[C@@]5(COC[C@]4(C)[C@@H](OC[C@](C)(N)C(C)(C)C)[C@H](n4ncnc4-c4ccncc4)C5)C3=CC[C@@]2(C)[C@@H]1C(=O)O [SCY-078 amorphous freebase]
water uptake (DVS) ([2]; 25° C., 80% RH): ~4.8%
solid form by XRPD after DVS [2]: no form change
